# Several values for one entry are separate records, joined by “and”; a condition that tells them apart may be missing. Equal entries are not always repeated.
# Experiments:
# plasma proteins = test: Fraction bound to plasma proteins, human; assay type: in vitro ADME
# [1] = Synovial fluid concentrations of MIV-711 in dogs; assay type: in vivo; settings: dog
# Protocol: Synovial fluid was collected from as many dogs as possible immediately before surgery and then again during necropsy from both operated and contralateral knees. The fluid was sampled directly without lavage using a syringe. The synovial fluid was transferred into tubes containing EDTA. The samples were spun in a centrifuge, and the supernatant was collected and stored at − 70 °C until analysis.
# To measure MIV-711 concentrations, 10–50 µL of plasma or synovial fluid was mixed with 30–150 µL of acetonitrile, samples were centrifuged (10 min, 20,000g, 7 °C) and 5 µL of the supernatant was injected onto the LC–MS/MS system. The lower limit of quantification (LLOQ) was 1 nmol/L.
# [2] = test system: dogs subjected to partial medial meniscectomy; test: Dog partial medial meniscectomy study, microscopic lesion width and depth ratio; assay type: in vivo
# Protocol: Measurements of width of total lesion of any type (chondrocyte death, cloning, fibrillation, proteoglycan loss) were taken across the tibial and femoral surfaces to give a total lesion width. Significant lesion width (matrix loss extending beyond superficial degeneration; i.e., lesions consisting of changes greater than just proteoglycan loss) was also determined in an attempt to convey possible treatment differences based on evaluation of more serious and permanent/irreversible cartilage matrix changes. Multiple depth measurements in areas of greatest lesion severity were taken for each of the 4 quadrants in each of the 3 anterior to posterior sections. These consisted of measurements taken from the surface (or estimated original surface when severe degenerative changes are present) to the point where cartilage appeared normal. A second measurement was taken in this same area to the depth of the tidemark so that the number expressed is a ratio of lesion depth vs. depth of tidemark. The mean values for each quadrant (medial to lateral) for the 3 anterior to posterior sections were determined as well as an overall mean for the joint. In this measurement, the minor changes consisting of proteoglycan loss only are not measured and only lesions with definite chondrocyte loss and sometimes fibrillation are included. This parameter should reflect a similar result to the significant width measurement as it is an indicator of beneficial effects on the more severe pathology.
# [3] = dog, individual animals of MIV-711 group
# [4] = dog, mean of zones, individual animals of MIV-711 group
# [5] = dog, mean of zones, versus Vehicle
# [6] = individual dogs of MIV-711 group, mean of the 4 quadrants
# [7] = individual dogs of MIV-711 group, width of any cartilage lesion, mean of 3 sections
# [8] = individual dogs of MIV-711 group, width of degeneration with score of 1 or greater
smiles,measurement,setting,value
C#C[C@@H]1CN(C(=O)[C@H](CC(C)C)NC(=O)c2ccc(-c3nc(N4CCN(C)CC4)sc3F)cc2)[C@@H]2C(=O)CO[C@H]12 [MIV-711],fraction bound to plasma proteins,plasma proteins,94%
same,MIV-711 levels in synovial fluid,[1]; 24 h after first dose and 24 h after last dose of 30 µmol/kg,low but measurable
same,"MIV-711 levels in synovial fluid, injured left knee compared to right knee","[1]; at sacrifice, 24 h after last dose of 30 µmol/kg",fivefold higher
same,Femur Cartilage Degeneration Width Sig,[2]; MIV-711 group mean,994.3 µm
same,Femur Cartilage Degeneration Width Total,[2]; MIV-711 group mean,3661.0 µm
same,Femur Mean DRAMC (Depth Ratio Any Matrix Change),[2]; MIV-711 group mean,0.084
same,Tibia Cartilage Degeneration Width Sig,[2]; MIV-711 group mean,2105.6 µm
same,Tibia Cartilage Degeneration Width Total,[2]; MIV-711 group mean,7336.0 µm
same,Tibia Mean DRAMC (Depth Ratio Any Matrix Change),[2]; MIV-711 group mean,0.13
same,"% inhibition, Femur Cartilage Degeneration Width Sig",[2]; MIV-711 group vs vehicle,11%
same,"% inhibition, Femur Cartilage Degeneration Width Total",[2]; MIV-711 group vs vehicle,13%
same,"% inhibition, Femur Mean DRAMC",[2]; MIV-711 group vs vehicle,-9%
same,"% inhibition, Tibia Cartilage Degeneration Width Sig",[2]; MIV-711 group vs vehicle,5%
same,"% inhibition, Tibia Cartilage Degeneration Width Total",[2]; MIV-711 group vs vehicle,0%
same,"% inhibition, Tibia Mean DRAMC",[2]; MIV-711 group vs vehicle,17%
same,Femur Depth Ratio Any Matrix Change Zone 1,"[2]; dog, group Mean",0.15
same,Femur Depth Ratio Any Matrix Change Zone 2,"[2]; dog, group Mean",0.13
same,Femur Depth Ratio Any Matrix Change Zone 3,"[2]; dog, group Mean",0.05
same,Femur Depth Ratio Any Matrix Change Zone 4,"[2]; dog, group Mean",0.01
same,Tibia Depth Ratio Any Matrix Change Zone 1,"[2]; dog, group Mean",0.05
same,Tibia Depth Ratio Any Matrix Change Zone 2,"[2]; dog, group Mean",0.31
same,Tibia Depth Ratio Any Matrix Change Zone 3,"[2]; dog, group Mean",0.11
same,Tibia Depth Ratio Any Matrix Change Zone 4,"[2]; dog, group Mean",0.04
same,Femur Depth Ratio Any Matrix Change Zone 1,[2]; [3],0.08 and 0.07 and 0.01 and 0.42 and 0.19 and 0.10 and 0.09 and 0.22 and 0.50 and 0.06 and 0.23
same,Femur Depth Ratio Any Matrix Change Zone 2,[2]; [3],0.13 and 0.16 and 0.00 and 0.36 and 0.08 and 0.10 and 0.01 and 0.06 and 0.09 and 0.48 and 0.05 and 0.24
same,Femur Depth Ratio Any Matrix Change Zone 3,[2]; [3],0.04 and 0.03 and 0.00 and 0.33 and 0.01 and 0.02 and 0.21
same,Femur Depth Ratio Any Matrix Change Zone 4,[2]; [3],0.00 and 0.01 and 0.02 and 0.06
same,Tibia Depth Ratio Any Matrix Change Zone 1,[2]; [3],0.06 and 0.08 and 0.01 and 0.09 and 0.03 and 0.13 and 0.00 and 0.15 and 0.11
same,Tibia Depth Ratio Any Matrix Change Zone 2,[2]; [3],0.28 and 0.23 and 0.35 and 0.24 and 0.27 and 0.36 and 0.39 and 0.22 and 0.47 and 0.33 and 0.30 and 0.19
same,Tibia Depth Ratio Any Matrix Change Zone 3,[2]; [3],0.14 and 0.11 and 0.18 and 0.08 and 0.15 and 0.07 and 0.24 and 0.06 and 0.04 and 0.19 and 0.03 and 0.05
same,Tibia Depth Ratio Any Matrix Change Zone 4,[2]; [3],0.05 and 0.04 and 0.00 and 0.07 and 0.06 and 0.01 and 0.03 and 0.02
same,Femur Depth Ratio Any Matrix Change Mean,"[2]; dog, mean of zones, group Mean",0.08
same,Tibia Depth Ratio Any Matrix Change Mean,"[2]; dog, mean of zones, group Mean",0.13
same,Femur Depth Ratio Any Matrix Change Mean,[2]; [4],0.06 and 0.07 and 0.00 and 0.28 and 0.04 and 0.03 and 0.01 and 0.08 and 0.31 and 0.12
same,Tibia Depth Ratio Any Matrix Change Mean,[2]; [4],0.13 and 0.11 and 0.17 and 0.09 and 0.15 and 0.16 and 0.07 and 0.14 and 0.20
same,"% inhibition, Femur Depth Ratio Any Matrix Change Mean",[2]; [5],-9%
same,"% inhibition, Tibia Depth Ratio Any Matrix Change Mean",[2]; [5],17%
same,"% inhibition, Femur Depth Ratio Any Matrix Change Zone 1","[2]; dog, versus Vehicle",-39%
same,"% inhibition, Femur Depth Ratio Any Matrix Change Zone 2","[2]; dog, versus Vehicle",10%
same,"% inhibition, Femur Depth Ratio Any Matrix Change Zone 3","[2]; dog, versus Vehicle",-12%
same,"% inhibition, Femur Depth Ratio Any Matrix Change Zone 4","[2]; dog, versus Vehicle",44%
same,"% inhibition, Tibia Depth Ratio Any Matrix Change Zone 1","[2]; dog, versus Vehicle",55%
same,"% inhibition, Tibia Depth Ratio Any Matrix Change Zone 2","[2]; dog, versus Vehicle",-2%
same,"% inhibition, Tibia Depth Ratio Any Matrix Change Zone 3","[2]; dog, versus Vehicle",23%
same,"% inhibition, Tibia Depth Ratio Any Matrix Change Zone 4","[2]; dog, versus Vehicle",19%
same,Femur Mean DRAMC (Depth Ratio Any Matrix Change),[2]; [6],0.04 and 0.06 and 0.07 and 0.00 and 0.28 and 0.03 and 0.01 and 0.08 and 0.31 and 0.12
same,Tibia Mean DRAMC (Depth Ratio Any Matrix Change),[2]; [6],0.07 and 0.13 and 0.11 and 0.17 and 0.09 and 0.15 and 0.16 and 0.14 and 0.20
same,Femur Cartilage Degeneration Width Total,[2]; [7],3885 µm and 4200 µm and 4410 µm and 630 µm and 5040 µm and 3780 µm and 2310 µm and 3990 µm and 5880 µm and 2730 µm and 3675 µm
same,Tibia Cartilage Degeneration Width Total,[2]; [7],6405 µm and 6510 µm and 8190 µm and 7560 µm and 8400 µm and 7980 µm and 6195 µm and 6930 µm and 6615 µm and 7245 µm and 7770 µm
same,Femur Cartilage Degeneration Width Sig,[2]; [8],0 µm and 735 µm and 1260 µm and 3465 µm and 200 µm and 968 µm and 420 µm and 1890 µm and 733 µm and 815 µm and 3360 µm and 1068 µm
same,Tibia Cartilage Degeneration Width Sig,[2]; [8],1638 µm and 1890 µm and 2310 µm and 1470 µm and 2520 µm and 2205 µm and 1155 µm and 3150 µm and 1575 µm and 1218 µm and 2163 µm and 4515 µm and 1785 µm
